Read-outs that look alike come from different tables or passages of the source. Where no end group is shown, it is not given here.
Tests used:
HLA Class I molecules = assay: HLA class I binding stability assay (pMHC-I complex dissociation, 125I-labeled β2m, scintillation counts); parameters: species or system human
HLA class I molecule = assay: HLA class I peptide binding affinity assay (inhibition of 125I-radiolabeled probe peptide binding to purified HLA); parameters: species or system human; conditions: read-out: Observed Affinity (IC50, (nM))
Procedure: Epstein-Barr virus (EBV)-transformed homozygous cell lines, fibroblasts, CIR, or 721.22 transfectants are used as sources of HLA class I molecules. […] HLA molecules are purified from lysates by affinity chromatography. The lysates are passed over a column of Sepharose CL-4B beads coupled to an appropriate antibody. […] A 1/25 volume of 2.0 M Tris, pH 6.8, is added to the eluate to reduce the pH to […]. Eluates are then concentrated by centrifugation in Centriprep 30 concentrators (Amicon, Beverly, MA). Protein content is evaluated by a BCA protein assay (Pierce Chemical Co., Rockford, IL) and confirmed by SDS-PAGE.
Following incubation, MHC-peptide complexes are separated from free peptide by gel filtration on 7.8 mm×15 cm TSK200 columns (TosoHaas 16215, Montgomeryville, PA). Because the large size of the radiolabeled peptide used for the DRB1*1501 (DR2w2(31) assay makes separation of bound from unbound peaks more difficult under these conditions, all DRB1*1501 (DR2w2(31) assays were performed using a 7.8 mm×30 cm TSK2000 column eluted at 0.6 mLs/min. The eluate from the TSK columns is passed through a Beckman 170 radioisotope detector, and radioactivity is plotted and integrated using a Hewlett-Packard 3396A integrator, and the fraction of peptide bound is determined.
Radiolabeled peptides are iodinated using the chloramine-T method. […] All subsequent inhibition and direct binding assays are performed using these HLA concentrations.
Since under these conditions [label]<[HLA] and IC50≥[HLA], the measured IC50 values are reasonable approximations of the true KD values. […] For database purposes, and inter-experiment comparisons, relative binding values are compiled. These values can subsequently be converted back into IC50 nM values by dividing the IC50 nM of the positive controls for inhibition by the relative binding of the peptide of interest.
HLA binding assays were used to evaluate either the affinity of interaction of a given epitope with a selected HLA molecule or the stability.
The measurements are plotted against the predicted affinity in FIG. 1.

[1] = allele A02.01, pMHC-I dissociation at 37° C.

Row | Stability (T1/2 (h)) (HLA Class I molecules; allele A02.01, 37° C.) [h] | IC50 (HLA class I molecule; allele A02.01) [nM] | Stability (T1/2 (h)) (HLA Class I molecules; [1]) [h] | Molecule | also measured
1 | – | 640 | 0.7 | PLYGLLLEM | –
2 | 1.1 | 295 | – | VLTVTSTDV | –
3 | 2.9 | 102 | – | VMAGLGSPYV | –
4 | – | 151 | 4.2 | PLNDLLLEM | –
5 | 16.5 | 2 | – | VMAYVMAGV | –
6 | 2.9 | 15 | – | CC(C)C[C@H](NC(=O)[C@H](C)N)C(=O)N[C@@H](CC(N)=O)C(=O)N[C@@H](CO)C(=O)N[C@@H](CCC(=O)O)C(=O)N[C@@H](C)C(=O)N[C@@H](CC(C)C)C(=O)N[C@@H](CO)C(=O)N[C@H](C(=O)N[C@H](C(=O)O)C(C)C)C(C)C | –
7 | 9.8 | 31 | – | SMLTDSLFL | –
8 | – | 1610 | 0.4 | IMQLMPFGC | –
9 | 1 | – | – | CC[C@H](C)[C@H](NC(=O)[C@H](CCC(N)=O)NC(=O)[C@@H](N)CO)C(=O)N[C@@H](CCSC)C(=O)N[C@@H](CO)C(=O)N[C@@H](CC(C)C)C(=O)N[C@@H](Cc1c[nH]c2ccccc12)C(=O)NCC(=O)N[C@@H](CC(C)C)C(=O)O | –
10 | 3.8 | – | – | MNWRPILTI | –
11 | – | – | 0.4 | CSCC[C@H](NC(=O)[C@H](CC(C)C)NC(=O)[C@H](CCC(N)=O)NC(=O)[C@@H](N)CCSC)C(=O)N1CCC[C@H]1C(=O)N[C@@H](Cc1ccccc1)C(=O)NCC(=O)N[C@@H](CS)C(=O)N[C@@H](CC(C)C)C(=O)N[C@@H](CC(C)C)C(=O)O | –
12 | 0.7 | – | – | CSCC[C@H](N)C(=O)N[C@@H](C)C(=O)N[C@@H](CC(C)C)C(=O)N[C@@H](CC(N)=O)C(=O)N[C@@H](CO)C(=O)N[C@@H](CCC(=O)O)C(=O)N[C@@H](C)C(=O)N[C@@H](CC(C)C)C(=O)N[C@@H](CO)C(=O)N[C@H](C(=O)O)C(C)C | –
13 | – | – | 5.1 | CC[C@H](C)[C@H](NC(=O)[C@H](CC(C)C)NC(=O)[C@@H]1CCCN1C(=O)[C@H](Cc1ccccc1)NC(=O)[C@H](CC(C)C)NC(=O)[C@@H](N)CCC(=O)O)C(=O)N[C@@H](Cc1ccccc1)C(=O)N1CCC[C@H]1C(=O)N[C@@H](C)C(=O)O | –
14 | 10.8 | – | – | CC(C)C[C@H](NC(=O)[C@H](CO)NC(=O)[C@H](CS)NC(=O)[C@H](CCC(=O)O)NC(=O)[C@H](Cc1c[nH]c2ccccc12)NC(=O)[C@H](CC(C)C)NC(=O)[C@H](C)NC(=O)[C@H](CC(C)C)NC(=O)[C@H](CC(C)C)NC(=O)[C@@H](N)Cc1ccccc1)C(=O)O | –
15 | – | – | 0.2 | CC[C@H](C)[C@H](N)C(=O)N[C@@H](CCC(N)=O)C(=O)N[C@@H](CC(C)C)C(=O)N[C@@H](CCC(N)=O)C(=O)N[C@@H](CC(=O)O)C(=O)N[C@@H](CCCCN)C(=O)N[C@@H](Cc1ccccc1)C(=O)N[C@@H](CCC(=O)O)C(=O)N[C@@H](Cc1c[nH]cn1)C(=O)N[C@@H](CC(C)C)C(=O)O | –
16 | – | – | 6.4 | KVLQMDFLV | –
17 | 16.9 | – | – | CSCC[C@H](NC(=O)[C@H](CC(C)C)NC(=O)[C@@H](N)CCCCN)C(=O)N[C@@H](CC(C)C)C(=O)N[C@@H](CC(C)C)C(=O)N[C@@H](CCCNC(=N)N)C(=O)N[C@@H](CC(C)C)C(=O)N[C@@H](CC(N)=O)C(=O)N[C@@H](CC(C)C)C(=O)O | Stability (T1/2 (h)) (HLA Class I molecules; allele B07.02, 37° C.): 1.5 h
18 | 20.9 | – | – | CSCC[C@H](NC(=O)[C@@H](NC(=O)[C@H](Cc1ccc(O)cc1)NC(=O)[C@H](C)NC(=O)[C@H](CCSC)NC(=O)[C@@H](NC(=O)[C@@H](N)Cc1ccc(O)cc1)C(C)C)C(C)C)C(=O)N[C@@H](C)C(=O)NCC(=O)N[C@H](C(=O)O)C(C)C | –
19 | 0.6 | – | – | CC[C@H](C)[C@H](NC(=O)[C@H](CCCCN)NC(=O)[C@H](CO)NC(=O)[C@H](CCC(=O)O)NC(=O)[C@H](C)NC(=O)[C@H](CCCCN)NC(=O)[C@H](CC(C)C)NC(=O)[C@H](Cc1ccccc1)NC(=O)[C@H](CCSC)NC(=O)[C@@H](N)Cc1ccc(O)cc1)C(=O)O | Stability (T1/2 (h)) (HLA Class I molecules; allele B08.01, 37° C.): 0.4 h
20 | 0.4 | – | – | CC[C@H](C)[C@H](NC(=O)[C@@H](NC(=O)[C@H](CC(C)C)NC(=O)[C@@H](NC(=O)[C@@H]1CCCN1C(=O)[C@H](CCCNC(=N)N)NC(=O)[C@H](CCC(N)=O)NC(=O)[C@H](CC(N)=O)NC(=O)[C@H](CCSC)NC(=O)CN)[C@@H](C)CC)[C@@H](C)O)C(=O)O | –

The next lines start with the molecule.

Row | Molecule | Stability (T1/2 (h)) (HLA Class I molecules; allele A02.01, 37° C.) [h] | IC50 (HLA class I molecule; allele A02.01) [nM] | Stability (T1/2 (h)) (HLA Class I molecules; [1]) [h] | also measured
21 | WMTETLFDI | 4 | 14 | – | –
22 | YLGNHMNIA | 0.6 | 117 | – | IC50 (HLA class I molecule; allele B08.01): 872 nM
23 | CC(C)C[C@H](NC(=O)[C@H](CC(C)C)NC(=O)[C@H](CC(C)C)NC(=O)CNC(=O)[C@H](Cc1ccc(O)cc1)NC(=O)[C@H](CC(C)C)NC(=O)[C@@H]1CCCN1C(=O)[C@@H](NC(=O)[C@@H](N)C(C)C)C(C)C)C(=O)O | – | 1040 | 0.6 | –
24 | ALSASNSCF | 0.3 | 728 | – | –
25 | PLCDLLLEML | – | 2010 | 0.9 | –
26 | VLLSVHLIV | – | 72 | 11 | –
27 | LLQEFDVQEA | 2.5 | 45 | – | –
28 | LQMDFLVHPA | – | 68 | 1.5 | –
29 | YQQQQQSDL | 0.4 | 799 | – | IC50 (HLA class I molecule; allele B08.01): 18900 nM
30 | WMTETLFDIV | 0.4 | 40 | – | IC50 (HLA class I molecule; allele A01.01): 14400 nM
31 | FSGEYIPTV | 6.8 | 3 | – | –
32 | PLCDLLLEM | – | 602 | 0.8 | –
33 | KPTRAATVSV | – | – | – | Stability (T1/2 (h)) (HLA Class I molecules; allele B07.02, 37° C.): 3 h
34 | CSCC[C@H](NC(=O)[C@@H](NC(=O)[C@H](Cc1ccc(O)cc1)NC(=O)[C@H](C)NC(=O)[C@H](CCSC)NC(=O)[C@@H](NC(=O)[C@@H](N)Cc1ccc(O)cc1)C(C)C)C(C)C)C(=O)N[C@@H](C)C(=O)NCC(=O)O | 2.5 | – | – | Stability (T1/2 (h)) (HLA Class I molecules; allele B08.01, 37° C.): 1.2 h
35 | C[C@H](NC(=O)[C@H](CO)NC(=O)[C@H](C)NC(=O)[C@@H]1CCCN1C(=O)[C@H](C)NC(=O)[C@@H]1CCCN1C(=O)[C@H](CCCNC(=N)N)NC(=O)[C@@H]1CCCN1C(=O)[C@@H](N)Cc1c[nH]cn1)C(=O)O | – | – | – | Stability (T1/2 (h)) (HLA Class I molecules; allele B07.02, 37° C.): 4.9 h
36 | CC(C)C[C@H](N)C(=O)N[C@H](C(=O)N[C@H](C(=O)N[C@H](C(=O)NCC(=O)N[C@@H](C)C(=O)N[C@H](C(=O)NCC(=O)N[C@H](C(=O)O)C(C)C)C(C)C)C(C)C)C(C)C)C(C)C | 0.6 | – | – | –
37 | CC(C)C[C@H](NC(=O)[C@H](CO)NC(=O)[C@H](CC(N)=O)NC(=O)[C@H](CS)NC(=O)[C@H](CCC(=O)O)NC(=O)[C@H](Cc1c[nH]cn1)NC(=O)[C@H](CC(C)C)NC(=O)[C@@H](NC(=O)[C@@H](N)CCC(N)=O)C(C)C)C(=O)O | 0.5 | – | – | –
38 | CC[C@H](C)[C@H](NC(=O)[C@H](Cc1ccc(O)cc1)NC(=O)[C@H](CC(C)C)NC(=O)[C@@H](N)CC(C)C)C(=O)N[C@H](C(=O)N[C@@H](C)C(=O)N[C@@H](Cc1ccccc1)C(=O)N[C@@H](Cc1ccccc1)C(=O)N[C@@H](CC(C)C)C(=O)O)[C@@H](C)O | 17 | – | – | –
39 | CC(C)C[C@H](NC(=O)[C@H](C)NC(=O)[C@@H](NC(=O)[C@H](CCCNC(=N)N)NC(=O)[C@H](CO)NC(=O)[C@H](CC(=O)O)NC(=O)[C@H](CO)NC(=O)[C@H](CC(C)C)NC(=O)[C@@H](N)CCCCN)[C@@H](C)O)C(=O)O [KLSDSRTAL] | 2.8 | – | – | Stability (T1/2 (h)) (HLA Class I molecules; allele B07.02, 37° C.): 6.8 h
40 | CSCC[C@H](NC(=O)[C@H](Cc1c[nH]c2ccccc12)NC(=O)[C@H](Cc1c[nH]cn1)NC(=O)[C@H](CC(N)=O)NC(=O)[C@H](CCCNC(=N)N)NC(=O)[C@H](CCCNC(=N)N)NC(=O)[C@H](CCC(N)=O)NC(=O)[C@H](CO)NC(=O)[C@@H]1CCCN1C(=O)[C@@H](N)CC(C)C)C(=O)O | – | – | – | Stability (T1/2 (h)) (HLA Class I molecules; allele B07.02, 37° C.): 6.5 h; Stability (T1/2 (h)) (HLA Class I molecules; allele B08.01, 37° C.): 0.7 h
41 | CSCC[C@H](NC(=O)[C@H](CC(C)C)NC(=O)[C@H](CCC(N)=O)NC(=O)[C@@H](N)CCSC)C(=O)N1CCC[C@H]1C(=O)N[C@@H](Cc1ccccc1)C(=O)NCC(=O)N[C@@H](CS)C(=O)N[C@@H](CC(C)C)C(=O)O | – | – | 0.4 | –
42 | CC[C@H](C)[C@H](NC(=O)[C@H](Cc1ccccc1)NC(=O)[C@H](CCCNC(=N)N)NC(=O)[C@@H]1CCCN1C(=O)[C@H](CC(C)C)NC(=O)[C@@H](N)CO)C(=O)N[C@@H](CC(C)C)C(=O)N[C@@H](CCSC)C(=O)N[C@@H](CCC(=O)O)C(=O)N[C@@H](CC(C)C)C(=O)O | – | – | 0.5 | Stability (T1/2 (h)) (HLA Class I molecules; allele B07.02, pMHC-I dissociation at 37° C.): 0.4 h
43 | CC(C)C[C@H](NC(=O)[C@@H]1CCCN1C(=O)[C@H](CS)NC(=O)[C@H](CC(C)C)NC(=O)[C@H](Cc1c[nH]cn1)NC(=O)[C@H](CC(N)=O)NC(=O)CNC(=O)[C@H](CC(C)C)NC(=O)[C@@H](N)CO)C(=O)O | 3.5 | – | – | Stability (T1/2 (h)) (HLA Class I molecules; allele B08.01, 37° C.): 0.5 h

Reference: patent US20230414735A1, “NEOANTIGENS AND METHODS OF THEIR USE” (priority 2016, published 2023)
